Test results: patent US20250333509A1, “METHODS FOR TREATING CANCER, OR VON-HIPPEL LINDAU DISEASE USING A COMBINATION OF A TIGIT ANTAGONIST, A PD-1 ANTAGONIST, AND A HIF-2-ALPHA INHIBITOR” (MERCK SHARP & DOHME LLC, priority 2022, published 2025)

B1: Anti-PD-1 (antibody)
heavy: EVQLVESGGGLVQPGGSLKLSCAASGFTFSNSGLAWVRQAPEKGLEWVATITYNGTSTYYRDSVKGRFTISRDNAKNTLYLQMSSLRSEDTATYYCARWVPGSGNFDYWGQGTLVTVSSAKTTPPSVYPLAPGSAAQTNSMVTLGCLVKGYFPEPVTVTWNSGSLSSGVHTFPAVLQSDLYTLSSSVTVPSSTWPSETVTCNVAHPASSTKVDKKIVPRDCGCKPCICTVPEVSSVFIFPPKPKDVLTITLTPKVTCVVVAISKDDPEVQFSWFVDDVEVHTAQTQPREEQFNSTFRSVSELPIMHQDWLNGKEFKCRVNSAAFPAPIEKTISKTKGRPKAPQVYTIPPPKEQMAKDKVSLTCMITDFFPEDITVEWQWNGQPAENYKNTQPIMDTDGSYFVYSKLNVQKSNWEAGNTFTCSVLHEGLHNHHTEKSLSHSPGK
light: DIVLTQSPASLAVSLGQRATISCRASQSVTISRYTLMHWYQQKPGQPPKLLIYRASNLASGIPARFSGSGSGTDFTLNIHPVEEDDAATYYCQQSRESPWTFGGGTKLEIKRADAAPTVSIFPPSSEQLTSGGASVVCFLNNFYPKDINVKWKIDGSERQNGVLNSWTDQDSKDSTYSMSSTLTLTKDEYERHNSYTCEATHKTSTSPIVKSFNRNEC
B2: Anti-TIGIT (antibody)
heavy: QVQLMESGPGLVQPSQTLSLTCTVSGFPLTSYTVHWVRQPPGKGLEWIGAIWSSGSTDYNSALKSRLNINRDSSKSQVFLKMNSLQTEDTAIYFCTKSGWAFFDYWGQGVMVTVSSAKTTAPSVYPLAPVCGDTTGSSVTLGCLVKGYFPEPVTLTWNSGSLSSGVHTFPAVLQSDLYTLSSSVTVTSSTWPSQSITCNVAHPASSTKVDKKIEPRGPTIKPCPPCKCPAPNLLGGPSVFIFPPKIKDVLMISLSPIVTCVVVDVSEDDPDVQISWFVNNVEVHTAQTQTHREDYNSTLRVVSALPIQHQDWMSGKEFKCKVNNKDLPAPIERTISKPKGSVRAPQVYVLPPPEEEMTKKQVTLTCMVTDFMPEDIYVEWTNNGKTELNYKNTEPVLDSDGSYFMYSKLRVEKKNWVERNSYSCSVVHEGLHNHHTTKSFSRTPGK
light: DIQMTQSPSLLSASVGDRVTLNCIASQNIYKSLAWYQLKLGEAPKLLIYNANSLQAGIPSRFSGSGSGTDFALTISGLQPEDVATYFCQQYSGGYTFGAGTKLELKRADAAPTVSIFPPSSEQLTSGGASVVCFLNNFYPKDINVKWKIDGSERQNGVLNSWTDQDSKDSTYSMSSTLTLTKDEYERHNSYTCEATHKTSTSPIVKSFNRNEC

Experiments:
[1] = tested on: RCC associated with VHL disease, CNS hemangioblastomas, pancreatic neuroendocrine tumors; conditions: cited from earlier work
CT26 tumors = test: CT26 mouse syngeneic tumor model: tumor growth inhibition and tumor regressions; assay type: in vivo; conditions: CT26 tumors in female BALB/cAnn mice, 10 per group, anti-PD-1 5 mg/kg ip every 5 days, anti-TIGIT 10 mg/kg ip every 5 days, belzutifan 3 mg/kg orally twice daily; for Tumor growth inhibition (TGI) % at Day 16: Day 16 when control animals exited study; for Number of complete tumor regressions (CRs) at end of study / Number of partial tumor regressions (PRs) at end of study: end of study (Day 43)
Description: The present Example describes preclinical data using a TIGIT antagonist and a PD-1 antagonist in combination with belzutifan, using mouse syngeneic models.
Prior to treatment initiation, female BALB/cAnn mice aged 7 weeks weighing between 18 to 21 grams were anesthetized and injected subcutaneously into the rear flank with 0.3×10^6 log-phase sub-confluent CT26 cells. Mice were pair-matched into treatment groups consisting of 10 mice per group when the mean tumor volume of inoculated CT26 tumors reached approximately 150 mm^3.
Treatment groups consisted of: • 1) Isotype mouse IgG1 (mIgG1) antibody+Isotype mouse IgG2a (mIgG2a) antibody+0.5% methylcellulose (vehicle); • 2) anti-PD-1 mIgG1 antibody+Isotype mIgG2a antibody+vehicle; • 3) anti-TIGIT mIgG2a antibody+Isotype mIgG1 antibody+vehicle; • 4) Isotype mIgG1 antibody+Isotype mIgG2a antibody+belzutifan; • 5) anti-PD-1 mIgG1 antibody+anti-TIGIT mIgG2a antibody+vehicle; • 6) anti-PD-1 mIgG1 antibody+Isotype mIgG2a antibody+belzutifan; • 7) Isotype mIgG1 antibody+anti-TIGIT mIgG2a antibody+belzutifan; and • 8) anti-PD-1 mIgG1 antibody+anti-TIGIT mIgG2a antibody+belzutifan.
Isotype mIgG1 and anti-PD-1 antibodies were dosed intraperitoneally every 5 days at 5 mg/kg body weight. Isotype mIgG2a and anti-TIGIT antibodies were dosed intraperitoneally every 5 days at 10 mg/kg body weight. Belzutifan was dosed orally twice daily at 3 mg/kg body weight. Start of treatments was considered Day 0 and dosing based on schedules continued as described until Day 43. Caliper measurements of tumors and body weights were captured twice weekly. Statistical analyses were performed by 2-sided student t-test of final 2 groups at Day 43 when study ended.

[2] = AE profile of belzutifan; cited from earlier work
[3] = patients with RCC associated with VHL disease who received belzutifan

Molecule | patients with a response after treatment ([1]; patients with CNS hemangioblastomas) | patients with a confirmed objective response [1, 3] | reduction in renal tumor size [1, 3] | patients who responded after treatment ([1]; patients with pancreatic neuroendocrine tumors) | Tumor growth inhibition (TGI) % at Day 16 (CT26 tumors) | Number of complete tumor regressions (CRs) at end of study (CT26 tumors) | Number of partial tumor regressions (PRs) at end of study (CT26 tumors) | adverse events associated with treatment [2]
CS(=O)(=O)c1ccc(Oc2cc(F)cc(C#N)c2)c2c1[C@H](O)[C@H](F)[C@@H]2F [belzutifan, 3-[(1S,2S,3R)-2,3-Difluoro-1-hydroxy-7-methylsulfonyl-indan-4-yl]oxy-5-fluoro-benzonitrile] | 30% | 49% | most patients had a reduction in renal tumor size | 91% | 5.8% | 0 CRs, 0 PRs | 0 CRs, 0 PRs | anemia and hypoxia have been associated with belzutifan treatment
B1 | – | – | – | – | 4.8% | 0 | 1 | –
B2 | – | – | – | – | 47.4% | 0 CRs, 0 PRs | 0 CRs, 0 PRs | –
